In ChEMBL document CHEMBL1151297, “Studies of the Thymelaeaceae II. Antineoplastic principles of Gnidia kraussiana” (1984):
In brackets after ≈: the same amount, converted by molar mass.

Tests used:
P388 [1] = assay: Cytotoxicity against mouse P388 cells; type: functional; settings: read-out: ED50 (the source's name)
P388 [2] = assay: In vivo antitumor activity against mouse P388 cells at 30 ug/kg; type: functional

SMILES | EC50 (P388 [1]) | T/C (P388 [2])
C=C(C)[C@]12C[C@@H](C)[C@@]34O[C@@]5(CCCCCCC[C@H](C)[C@H]6[C@H](C)[C@H](OC(=O)c7ccccc7)[C@@](O)([C@H](O)[C@@]7(CO)O[C@H]7[C@@H]3[C@H]1O5)[C@@H]64)O2 | 2.3 ng/mL (≈ 3.6 nM) | –
C=C(C)[C@]12C[C@@H](C)[C@@]34O[C@](/C=C/C=C/CCCCC)(O[C@@H]1[C@@H]3[C@@H]1O[C@]1(CO)[C@@H](O)[C@]1(O)C(=O)C(C)=C[C@H]14)O2 [EXCOECARIA TOXIN] | 0.24 ng/mL (≈ 0.454 nM) | –
C=C(C)[C@@]12O[C@@]3(/C=C/C=C/CCCCC)O[C@@H]1[C@@H]1[C@@H]4O[C@]4(CO)[C@@H](O)[C@]4(O)C(=O)C(C)=C[C@H]4[C@@]1(O3)[C@H](C)[C@H]2OC(=O)c1ccccc1 [GNIDILATIDIN] | < 1 ng/mL | –
C=C(C)[C@@]12O[C@@]3(CCCCCCCCC)O[C@@H]1[C@@H]1[C@@H]4O[C@]4(CO)[C@@H](O)[C@]4(O)C(=O)C(C)=C[C@H]4[C@@]1(O3)[C@H](C)[C@H]2OC(=O)c1ccccc1 [GNIDILATIN] | < 1 ng/mL | –
C=C(C)[C@@]12C[C@@H](C)[C@@]34OC5(O[C@@H]1[C@@H]3[C@@H]1O[C@]1(CO)[C@@H](O)[C@@]1(O)[C@H]4[C@H]([C@H](C)[C@@H]1OC(=O)c1ccccc1)[C@H](C)CCCCCC[C@H]5O)O2 [KRAUSSIANIN] | 0.78 ng/mL (≈ 1.19 nM) | 152%
